Source: patent US12338203B2 (TAISHO PHARMACEUTICAL CO., LTD., priority 2019, dated 2025)

Target: T1, human LPAR1 (Homo sapiens, UniProt Q92633)
T1 construct: expressed in transfected cells
Assay: Test Example 1: antagonism against response of LPA-induced increase in intracellular Ca2+ concentration in RH7777 cells stably expressing human LPAR1
Type: cell-based
Settings: RH7777 cells stably expressing human LPAR1; Fluo-4 fluorescence, FDSS6000; read-out: IC50 value (concentration producing 50% antagonism against response of LPA-induced increase in intracellular Ca2+ concentration) (converted)
In short: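 RH7777 cells stably transfected with human LPAR1 were preincubated with test compound 30 min at 37 °C in HBSS/20 mM HEPES/probenecid/0.05% BSA buffer, pH 7.4, then LPA-stimulated.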

T1 sequence (Q92633 whole entry): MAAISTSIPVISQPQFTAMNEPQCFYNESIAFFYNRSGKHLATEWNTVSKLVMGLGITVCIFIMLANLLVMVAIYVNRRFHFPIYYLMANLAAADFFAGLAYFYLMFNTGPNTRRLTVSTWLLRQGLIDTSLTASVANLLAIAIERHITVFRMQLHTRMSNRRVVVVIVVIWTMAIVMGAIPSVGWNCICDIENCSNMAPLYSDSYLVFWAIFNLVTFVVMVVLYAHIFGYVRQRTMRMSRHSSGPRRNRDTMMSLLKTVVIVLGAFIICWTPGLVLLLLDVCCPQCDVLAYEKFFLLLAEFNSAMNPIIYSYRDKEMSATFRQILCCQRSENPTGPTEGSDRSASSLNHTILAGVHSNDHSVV

IC50 | Compound
2.5 nM | CCOc1c(C2CC2)ccc([C@@H](C)N(CCOC(C)c2ccccc2)C(=O)NC2(C(=O)O)CC(F)(F)C2)c1C (stereo partly drawn) [Example 4-167]
75.8 nM | CC(c1cc(C(F)(F)F)cc(C(F)(F)F)c1)N(CCCCc1ccccc1)C(=O)NC1(C(=O)O)CC(F)(F)C1 (stereo not drawn) [Example 5-24]
11 nM | CCCOc1cc(OCCC)cc(C(C)N(CCCCc2ccccc2)C(=O)NC2(C(=O)O)CC(F)(F)C2)c1 (stereo not drawn) [Example 5-18]
3.4 nM | CCOc1cc([C@@H](C)N(CCO[C@H](C)c2ccccc2)C(=O)NC2(C(=O)O)CC(F)(F)C2)cc(OCC)c1C(C)=O [Example 4-149]
7.9 nM | COc1cc(C(C)N(CCOCc2ccccc2)C(=O)NC2(C(=O)O)CCC2)cc(OC)c1C(C)=O (stereo not drawn) [Example 5-130]
1.88 nM | COc1cc(C(C)N(CCOCc2ccccc2)C(=O)NC2(C(=O)O)CCC2)c(C)c(OC)c1C1CC1 (stereo not drawn) [Example 5-135]
0.817 nM | CCOc1cc(C(C)N(CCOCc2ccccc2)C(=O)NC2(C(=O)O)CCC2)c(Cl)c(OCC)c1C1CC1 (stereo not drawn) [Example 5-190]
1.07 nM | CCOc1cc([C@@H](C)N(CCOCc2ccccc2)C(=O)N[C@]2(C(=O)O)C[C@@H](OCC)C2)c(C)c(OCC)c1C [Example 5-81]
1 nM | CCOc1cc([C@@H](C)N(CCCCc2ccccc2)C(=O)NC2(C(=O)O)CC(F)(F)C2)cc(OCC)c1C1CC1 [Example 1-46, Sodium 1-({[(1R)-1-(4-Cyclopropyl-3,5-Diethoxyphenyl)Ethyl](4-Phenylbutyl) Carbamoyl}Amino)-3,3-Difluorocyclobutane-1-Carboxylate]
3.38 nM | CCOc1cc([C@@H](C)N(CCCCc2ccccc2)C(=O)NC2(C(=O)O)CCC2)cc(OCC)c1C(C)O (single isomer, unassigned) [Example 1-21]
9.18 nM | CCOc1cc([C@@H](C)N(CCCCc2ccccc2)C(=O)NC2(C(=O)O)CC(OC)C2)cc(OCC)c1C1(O)CC1 (stereo partly drawn) [Example 1-90]
0.949 nM | CCOc1cc(C(C)N(CCOCc2ccccc2)C(=O)NC2(C(=O)O)CCOCC2)cc(OCC)c1C1CC1 (stereo not drawn) [Example 5-224]
8.1 nM | CCOc1cc([C@@H](C)N(CCCCc2ccccc2)C(=O)NC2(c3nn[nH]n3)CC(F)(F)C2)c(Cl)c(OCC)c1C(C)O (stereo partly drawn) [Example 10-11]
2.75 nM | CCOc1cc(C(C)N(CCCCc2ccccc2)C(=O)NC2(C(=O)O)CC(OCC)C2)c(Cl)c(OCC)c1C(C)=O (stereo not drawn) [Example 5-209]
129 nM | CCOc1cc(C(C)N(CCCCc2ccccc2)C(=O)NC(CCc2ccccc2)C(=O)O)cc(OCC)c1C (stereo not drawn) [Example 1-9]
4.85 nM | CCOC1CC(NC(=O)N(CCOCc2ccccc2)[C@H](C)c2cc(OC)c(C)c(OC)c2)(C(=O)O)C1 (stereo partly drawn) [Example 4-165]
21.9 nM | CCOc1cc([C@@H](C)N(CCO[C@@H](C)c2ccccc2)C(=O)N[C@]2(C(=O)O)C[C@@H](OCC)C2)cc(OCC)c1C1(O)CC1 [Example 4-137]
3.82 nM | CCOc1cc([C@@H](C)N(CCO[C@@H](C)c2ccccc2)C(=O)NC2(C(=O)O)CC(OC)C2)c(Cl)c(OCC)c1C(C)O (single isomer, unassigned) [Example 5-58]
103 nM | CCOc1cc(C(C)N(CCCCc2ccccc2)C(=O)NC2(C(=O)O)CC(F)(F)C2)cc(OCC)c1C(=O)NC (stereo not drawn) [Example 1-61]

IC50 | Compound
28.4 nM | CCOc1cc([C@@H](C)N(CCN2Cc3ccccc3C2)C(=O)NC2(C(=O)O)CC(F)(F)C2)cc(OCC)c1C [Example 4-31]
45.5 nM | CCOc1cccc(C(C)N(CCCCc2ccccc2)C(=O)NC2(C(=O)O)CC(F)(F)C2)c1 (stereo not drawn) [Example 5-3]
200 nM | CCOc1cc(C(C)N(CCCCc2ccccc2)C(=O)NC2CCC(C(=O)O)CC2)cc(OCC)c1C (stereo not drawn) [Example 1-143]
11 nM | CCOc1cc([C@@H](C)N(CCCCc2ccccc2)C(=O)NC2(CC(=O)O)CCOCC2)cc(OCC)c1C(C)=O [Example 1-166]
42.9 nM | CCOc1cc([C@@H](C)N(CCCCc2ccccc2)C(=O)NC2CCC(C(=O)O)C2)cc(OCC)c1C(C)=O (stereo partly drawn) [Example 1-141]
5.26 nM | CCOC1CC(NC(=O)N(CCOC(C)c2ccccc2)C(C)c2cc(OC)c(C3CC3)c(OC)c2)(C(=O)O)C1 (stereo not drawn) [Example 5-167]
3.94 nM | CCOc1c(C(C)=O)ccc([C@@H](C)N(CCCC(F)(F)c2ccccc2)C(=O)N[C@]2(C(=O)O)C[C@@H](OC)C2)c1C [Example 4-63]
1.24 nM | CCOc1c(C(C)=O)ccc([C@@H](C)N(CCCCc2ccccc2)C(=O)NC2(C(=O)O)CC(F)(F)C2)c1C [Example 1-75]
2.71 nM | CCOc1cc(C(C)N(CCCCc2ccccc2)C(=O)NC2(C(=O)O)CC(F)(F)C2)cc(OCC)c1CC (stereo not drawn) [Example 1-47]
1.75 nM | CCOc1cc([C@@H](C)N(CCO[C@@H](C)c2ccccc2)C(=O)N[C@]2(C(=O)O)C[C@@H](OCC)C2)c(C)c(OCC)c1C [Example 5-82, trans-1-[([(1R)-1-(3,5-diethoxy-2,4-dimethylphenyl)ethyl]{2-[(1S)-1-phenylethoxy]ethyl}carbamoyl)amino]-3-ethoxycyclobutane-1-carboxylic acid]
7.43 nM | Cc1c(OC2CC2)cc(C(C)N(CCCCc2ccccc2)C(=O)NC2(C(=O)O)CC(F)(F)C2)cc1OC1CC1 (stereo not drawn) [Example 1-73]
237 nM | CCOc1cc([C@H](C)N(CCCCc2ccccc2)C(=O)NC2(C(=O)O)Cc3ccccc3C2)cc(OCC)c1C [Example 1-124, 2-({[(1S)-1-(3,5-Diethoxy-4-Methylphenyl)Ethyl](4-Phenylbutyl) Carbamoyl}Amino)-2,3-Dihydro-1H-Indene-2-Carboxylic Acid]
3.92 nM | CCOc1cc(C#N)cc(C(C)N(CCCCc2ccccc2)C(=O)NC2(C(=O)O)CC(F)(F)C2)c1 (stereo not drawn) [Example 5-20]
1890 nM | CCOc1cc(C(C)N(CCCCc2ccccc2)C(=O)NC2(C(N)=O)CCCC2)cc(OCC)c1C (stereo not drawn) [Example 6-1, 1-({[1-(3,5-Diethoxy-4-Methylphenyl)Ethyl](4-Phenylbutyl) Carbamoyl}Amino)Cyclopentane-1-Carboxamide]
2.31 nM | CCOc1cc([C@@H](C)N(CCCCc2ccccc2)C(=O)NC2(C(=O)O)CC(=O)C2)cc(OCC)c1C [Example 1-111]
0.813 nM | CCOc1cc(C(C)N(CCOCc2ccccc2)C(=O)NC2(C(=O)O)CC(OCC)C2)cc(OCC)c1C1CC1 (stereo not drawn) [Example 5-219]
1.9 nM | CCOc1cc(C(C)N(CCCCc2ccccc2)C(=O)NC2(c3nn[nH]n3)CC2)cc(OCC)c1C(C)=O (stereo not drawn) [Example 10-3]
4.33 nM | COc1cc([C@@H](C)N(CCOCc2ccccc2)C(=O)NC2(C(=O)O)CC(OC)C2)c(Cl)c(OC)c1C(C)=O (stereo partly drawn) [Example 5-123]
1.41 nM | CCOc1cc(C(C)N(CCOCc2ccccc2)C(=O)NC2(C(=O)O)CC(F)(F)C2)cc(OCC)c1C1CC1 (stereo not drawn) [Example 5-196]

IC50 | Compound
1830 nM | COc1cc(C(C)N(CCCn2cc(C)cn2)C(=O)NC2(C(=O)O)CC(F)(F)C2)cc(OC)c1C (stereo not drawn) [Example 4-26]
3600 nM | CCOc1cc(C(C)N(CCCCc2ccccc2)C(=O)NC(CC(=O)O)C(=O)O)cc(OCC)c1C (stereo not drawn) [Example 1-12]
2.02 nM | CCOc1c(C2CC2)ccc([C@@H](C)N(CCO[C@@H](C)c2ccccc2)C(=O)NC2(C(=O)O)CCC2)c1C [Example 4-166]
1.23 nM | CCOc1cc([C@@H](C)N(CCO[C@@H](C)c2ccccc2)C(=O)NC2(C(=O)O)CCC2)cc(OCC)c1C1CC1 [Example 4-115]
7.44 nM | CCOc1cc(C(C)N(CCCCc2ccccc2)C(=O)NC2(C(=O)O)CC(F)(F)C2)cc(OCC)c1OCC (stereo not drawn) [Example 1-55]
0.992 nM | CCOc1cc([C@@H](C)N(CCCC(F)(F)c2ccccc2)C(=O)NC2(C(=O)O)CCOCC2)cc(OCC)c1C1CC1 [Example 4-75]
1.99 nM | CCOc1cc([C@@H](C)N(CCCCc2ccccc2)C(=O)NC2(C(=O)O)CC(OC)C2)cc(OCC)c1C (stereo partly drawn) [Example 1-91]
4 nM | CCOc1cc(C(C)N(CCOCc2ccccc2)C(=O)NC2(C(=O)O)CCOCC2)c(C)c(OCC)c1C(C)=O (stereo not drawn) [Example 5-226]
22.2 nM | O=C(NC1(C(=O)O)CC(F)(F)C1)N(CCCCc1ccccc1)C1CCc2c(Cl)cc(Cl)cc21 (stereo not drawn) [Example 5-116, 1-{[(4,6-Dichloro-2,3-Dihydro-1H-Inden-1-Yl) (4-Phenylbutyl) Carbamoyl]Amino}-3,3-Difluorocyclobutane-1-Carboxylic Acid]
2.74 nM | CCOc1cc(C(C)N(CCOCc2ccccc2)C(=O)NC2(C(=O)O)CC(OC)C2)c(Cl)c(OCC)c1C(C)=O (stereo not drawn) [Example 5-205]
0.997 nM | CCOc1cc([C@@H](C)N(CCCCc2ccccc2)C(=O)NC2(C(=O)O)CCOCC2)cc(OCC)c1C1CC1 [Example 1-155]
43.5 nM | CCOc1cc([C@@H](C)N(CCC(F)(F)Cc2ccccc2)C(=O)N[C@]2(C(=O)O)C[C@@H](OCC)C2)c(C)c(OCC)c1C [Example 5-80]
6.38 nM | CCOc1cc(C(C)N(CCCCc2ccccc2)C(=O)NC2CC(C(=O)O)C2)cc(OCC)c1C(C)=O (stereo not drawn) [Example 1-128]
3.92 nM | CCOc1cc([C@@H](C)N(CCCCc2ccccc2)C(=O)N[C@H]2COC[C@H]2C(=O)O)cc(OCC)c1C(C)=O [Example 1-162]
7.96 nM | CCOc1cc(C(C)N(CCCCc2ccccc2)C(=O)NC2(C(=O)O)CC(F)(F)C2)cc(OCC)c1C(O)C(F)(F)F (stereo not drawn) [Example 1-52]
74.5 nM | COc1cc(C(CO)N(CCCCc2ccccc2)C(=O)NC2(C(=O)O)CCCC2)cc(OC)c1C (stereo not drawn) [Example 3-7]
11.8 nM | CCOc1c(C(C)=O)ccc([C@@H](C)N(CCCCc2ccccc2)C(=O)NC2(C(=O)O)CC(OC)C2)c1C (stereo partly drawn) [Example 1-94]
10200 nM | CCOc1cc(C(C)N(CCO[C@@H](C)c2ccccc2)C(=O)NC2(C(=O)OC(C)(C)C)CC(F)(F)C2)c(Cl)c(OCC)c1C(C)=O (stereo partly drawn) [Example 6-17]
2500 nM | CCCCN(C(=O)NC1(C(=O)O)CC(F)(F)C1)[C@H](C)c1cc(OCC)c(C)c(OCC)c1 [Example 4-1, 1-({Butyl[(1R)-1-(3,5-Diethoxy-4-Methylphenyl)Ethyl]Carbamoyl}Amino)-3,3-Difluorocyclobutane-1-Carboxylic Acid]
